Measurements reported in patent US12441726B2, “Compounds and uses thereof” (Foghorn Therapeutics Inc., priority 2020, dated 2025).

What was measured:
[1] = molecular target: BRM (Homo sapiens, UniProt P51531); assay: ATPase catalytic activity assay (ADP-Glo), BRM; conditions: 30 nM BRM, 400 μM ATP; for IC50: BRM ATPase: IC50 (uM)
Description: The ATPase catalytic activity of BRM or BRG-1 was measured by an in vitro biochemical assay using ADP-Glo™ (Promega, V9102). The ADP-Glo™ kinase assay is performed in two steps once the reaction is complete. The first step is to deplete any unconsumed ATP in the reaction. The second step is to convert the reaction product ADP to ATP, which will be utilized by the luciferase to generate luminesce and be detected by a luminescence reader, such as Envision.
Then following addition of 5 μL of ADP-Glo™ Reagent provided in the kit, the reaction incubates at room temperature for 40 minutes. Then 10 μL of Kinase Detection Reagent provided in the kit is added to convert ADP to ATP, and the reaction incubates at room temperature for 60 minutes. Finally, luminescence measurement is collected with a plate-reading luminometer, such as Envision.

[2] = molecular target: BRG-1 (Homo sapiens, UniProt P51532); assay: ATPase catalytic activity assay (ADP-Glo), BRG-1; conditions: for Emax: 1 h, read-out: BRG1 Max % Inhibition, ADP-Glo, 30 nM BRG-1, 400 μM ATP
Sequence of BRG-1 (P51532 whole entry): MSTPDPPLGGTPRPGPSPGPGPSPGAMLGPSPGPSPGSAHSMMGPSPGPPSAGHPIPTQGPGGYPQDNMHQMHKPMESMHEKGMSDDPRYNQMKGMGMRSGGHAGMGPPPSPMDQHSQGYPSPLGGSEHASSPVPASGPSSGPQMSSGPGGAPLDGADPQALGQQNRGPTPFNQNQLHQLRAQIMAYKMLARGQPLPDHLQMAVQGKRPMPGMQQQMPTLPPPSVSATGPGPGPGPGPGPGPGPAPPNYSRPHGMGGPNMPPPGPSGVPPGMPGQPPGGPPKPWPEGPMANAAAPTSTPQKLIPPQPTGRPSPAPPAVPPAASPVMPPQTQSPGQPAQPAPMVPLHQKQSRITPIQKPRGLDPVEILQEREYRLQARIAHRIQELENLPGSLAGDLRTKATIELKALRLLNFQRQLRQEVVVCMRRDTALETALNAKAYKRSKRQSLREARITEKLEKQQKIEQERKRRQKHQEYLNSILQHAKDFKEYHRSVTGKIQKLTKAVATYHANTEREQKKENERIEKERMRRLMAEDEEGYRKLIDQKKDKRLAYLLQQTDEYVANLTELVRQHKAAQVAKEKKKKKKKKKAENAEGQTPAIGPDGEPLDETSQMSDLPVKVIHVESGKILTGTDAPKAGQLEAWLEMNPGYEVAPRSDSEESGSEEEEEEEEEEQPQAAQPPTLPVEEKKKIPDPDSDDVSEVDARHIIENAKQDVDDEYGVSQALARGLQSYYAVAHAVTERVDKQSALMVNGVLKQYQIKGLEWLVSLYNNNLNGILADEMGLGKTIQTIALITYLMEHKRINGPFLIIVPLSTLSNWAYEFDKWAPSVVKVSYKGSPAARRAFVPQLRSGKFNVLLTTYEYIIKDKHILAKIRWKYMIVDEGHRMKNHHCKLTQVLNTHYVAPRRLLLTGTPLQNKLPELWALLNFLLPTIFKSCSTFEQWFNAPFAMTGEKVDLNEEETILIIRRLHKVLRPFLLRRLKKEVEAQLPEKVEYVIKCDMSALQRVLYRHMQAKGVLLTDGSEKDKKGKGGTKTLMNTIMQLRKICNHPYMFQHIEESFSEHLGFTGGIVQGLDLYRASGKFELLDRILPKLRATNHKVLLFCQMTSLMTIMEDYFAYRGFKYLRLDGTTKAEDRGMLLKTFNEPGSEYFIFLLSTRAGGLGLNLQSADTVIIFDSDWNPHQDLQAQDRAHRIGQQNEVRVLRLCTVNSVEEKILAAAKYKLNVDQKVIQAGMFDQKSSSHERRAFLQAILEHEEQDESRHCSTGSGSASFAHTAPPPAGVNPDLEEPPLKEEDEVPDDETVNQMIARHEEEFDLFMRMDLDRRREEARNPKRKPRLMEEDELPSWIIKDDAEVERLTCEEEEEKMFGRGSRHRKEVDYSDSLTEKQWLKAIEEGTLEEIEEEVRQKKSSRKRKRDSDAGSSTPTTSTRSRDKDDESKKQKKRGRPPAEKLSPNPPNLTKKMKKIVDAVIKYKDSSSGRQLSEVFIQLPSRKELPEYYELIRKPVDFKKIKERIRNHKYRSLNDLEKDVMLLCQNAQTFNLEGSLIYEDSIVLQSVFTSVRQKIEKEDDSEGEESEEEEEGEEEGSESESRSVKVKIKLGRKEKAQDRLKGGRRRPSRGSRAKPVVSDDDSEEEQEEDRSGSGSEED

Sequence of BRM (P51531 whole entry): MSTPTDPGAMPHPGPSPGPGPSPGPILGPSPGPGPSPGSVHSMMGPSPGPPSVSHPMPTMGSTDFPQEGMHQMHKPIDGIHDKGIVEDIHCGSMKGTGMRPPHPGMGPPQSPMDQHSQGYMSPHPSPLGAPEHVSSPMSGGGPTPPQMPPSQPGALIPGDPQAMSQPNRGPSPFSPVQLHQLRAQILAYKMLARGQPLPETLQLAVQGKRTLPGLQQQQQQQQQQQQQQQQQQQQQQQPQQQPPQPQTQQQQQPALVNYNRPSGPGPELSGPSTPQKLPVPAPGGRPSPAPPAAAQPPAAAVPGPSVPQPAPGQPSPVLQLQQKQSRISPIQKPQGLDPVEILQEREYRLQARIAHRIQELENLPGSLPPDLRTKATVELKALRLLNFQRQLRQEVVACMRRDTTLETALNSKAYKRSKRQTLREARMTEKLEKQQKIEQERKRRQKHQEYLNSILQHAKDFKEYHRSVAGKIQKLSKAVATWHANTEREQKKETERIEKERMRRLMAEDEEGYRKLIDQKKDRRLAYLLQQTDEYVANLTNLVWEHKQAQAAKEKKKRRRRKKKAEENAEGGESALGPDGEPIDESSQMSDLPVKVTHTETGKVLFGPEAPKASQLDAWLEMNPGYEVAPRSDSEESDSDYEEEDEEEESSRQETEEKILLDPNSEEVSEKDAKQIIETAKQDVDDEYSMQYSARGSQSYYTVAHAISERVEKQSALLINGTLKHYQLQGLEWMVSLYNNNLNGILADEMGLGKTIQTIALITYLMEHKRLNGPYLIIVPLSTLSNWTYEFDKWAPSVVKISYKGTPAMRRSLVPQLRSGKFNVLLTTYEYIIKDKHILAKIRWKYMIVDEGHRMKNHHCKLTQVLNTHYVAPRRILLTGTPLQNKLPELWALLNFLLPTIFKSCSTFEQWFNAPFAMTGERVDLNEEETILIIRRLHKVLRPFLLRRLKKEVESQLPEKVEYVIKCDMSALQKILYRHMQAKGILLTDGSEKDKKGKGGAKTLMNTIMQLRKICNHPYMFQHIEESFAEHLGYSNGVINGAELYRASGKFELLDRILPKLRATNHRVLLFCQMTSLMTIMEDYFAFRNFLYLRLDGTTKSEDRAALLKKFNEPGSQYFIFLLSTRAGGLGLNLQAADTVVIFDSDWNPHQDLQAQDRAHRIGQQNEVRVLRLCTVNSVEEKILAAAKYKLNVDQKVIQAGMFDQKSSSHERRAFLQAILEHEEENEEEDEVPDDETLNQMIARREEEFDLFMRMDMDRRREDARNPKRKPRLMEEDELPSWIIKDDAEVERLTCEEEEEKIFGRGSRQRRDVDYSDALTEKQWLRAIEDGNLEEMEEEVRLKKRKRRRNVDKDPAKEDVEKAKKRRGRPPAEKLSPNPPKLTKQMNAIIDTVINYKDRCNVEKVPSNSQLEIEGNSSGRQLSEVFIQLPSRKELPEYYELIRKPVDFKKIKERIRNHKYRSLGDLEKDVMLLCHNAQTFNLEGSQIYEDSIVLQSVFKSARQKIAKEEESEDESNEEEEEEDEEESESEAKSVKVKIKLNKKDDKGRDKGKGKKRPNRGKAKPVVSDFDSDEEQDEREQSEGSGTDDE

Row | BRM Max % Inhibition [1] | IC50 [1] | IC50 [2] | Emax [2] | SMILES
1 | 99% | < 0.1 µM | 0.1 to 0.5 µM | 88% | CN1Cc2cc(-c3ccc4cnc(CNC(=O)c5ccc6c(c5)[C@](C)(C#N)COC6)cc4n3)ccc2C1=O [Compound 495]
2 | 84% | 0.1 to 0.5 µM | > 1 µM | 47% | COc1cc(C)nn1-c1ccc2cnc(CNC(=O)c3ccc4c(c3)[C@](C)(C#N)COC4)cc2n1 [Compound 195]
3 | 78% | > 1 µM | > 1 µM | 31% | COC(=O)N1CCC(C#Cc2ccnc(CNC(=O)c3ccc4c(c3)[C@](C)(C#N)COC4)c2)CC1 [Compound 21]
4 | 99% | < 0.1 µM | 0.1 to 0.5 µM | 91% | C[C@@]1(C#N)COCc2ccc(C(=O)NCc3cc4nc(-c5ccnc(N6C[C@@H]7C[C@H]6CO7)n5)ccc4cn3)cc21 [Compound 340]
5 | 97% | 0.1 to 0.5 µM | 0.5 to 1 µM | 89% | C[C@@]1(C#N)COCc2ccc(C(=O)NCc3cc([C@H]4C[C@@H](c5ccccc5)C4)ccn3)cc21 [Compound 19]
6 | 96% | 0.1 to 0.5 µM | 0.5 to 1 µM | 63% | C[C@@]1(C#N)COCc2ccc(C(=O)NCc3cc4nc(-n5cccc(N6CCC6)c5=O)ccc4cn3)cc21 [Compound 283]
7 | 92% | 0.1 to 0.5 µM | 0.5 to 1 µM | 67% | C[C@@]1(C#N)COCc2ccc(C(=O)NCc3cc4nc(-c5ccnc(C(F)F)n5)ccc4cn3)cc21 [Compound 358]
8 | 98% | 0.1 to 0.5 µM | 0.1 to 0.5 µM | 85% | CN(C)c1cccc(-c2ccc3cnc(CNC(=O)c4cc(F)c5c(c4)[C@](F)(C(F)F)COC5)cc3n2)n1 [Compound 226]
9 | 88% | 0.5 to 1 µM | > 1 µM | 87% | C[C@H](NC(=O)c1ccc2c(c1)[C@](C)(C#N)COC2)c1cc2nc(-c3ccccc3)ccc2cn1 [Compound 87]
10 | 97% | 0.1 to 0.5 µM | 0.5 to 1 µM | 84% | C[C@@]1(C#N)COCc2ccc(C(=O)NCc3cc(N4CCN(c5ccccc5)CC4)ccn3)cc21 [Compound 42]
11 | 101% | < 0.1 µM | < 0.1 µM | 101% | CN(C)c1cccc(-c2ccc3nnc(CNC(=O)c4ccc5c(c4)[C@](C)(C#N)COC5)cc3n2)n1 [Compound 223]
12 | 98% | < 0.1 µM | 0.1 to 0.5 µM | 87% | COC(C)(C)C#Cc1cccc(-c2ccc3cnc(CNC(=O)c4ccc5c(c4)[C@](C)(C#N)COC5)cc3n2)n1 [Compound 163]
13 | 89% | 0.1 to 0.5 µM | > 1 µM | 42% | COc1cccc([C@H]2C[C@@H](c3ccnc(CNC(=O)c4ccc5c(c4)[C@](C)(C#N)COC5)c3)C2)c1 [Compound 71]
14 | 94% | 0.1 to 0.5 µM | > 1 µM | 51% | C[C@@]1(C#N)COCc2ccc(C(=O)NCc3nccc(C#Cc4ccccc4)c3F)cc21 [Compound 16]
15 | 99% | < 0.1 µM | 0.1 to 0.5 µM | 93% | C[C@@]1(F)COCc2ccc(C(=O)NCc3cc4nc(-c5ccnc(N6CCC6)n5)ccc4cn3)cc21 [Compound 429]
16 | 98% | 0.1 to 0.5 µM | 0.5 to 1 µM | 76% | COc1c(-c2ccc3cnc(CNC(=O)c4ccc5c(c4)[C@](C)(C#N)COC5)cc3n2)ccc2cnn(C)c12 [Compound 491]
17 | 91% | 0.1 to 0.5 µM | 0.5 to 1 µM | 52% | CCC(C)(O)c1cccc(-c2ccc3cnc(CNC(=O)c4ccc5c(c4)[C@](C)(F)COC5)cc3n2)n1 (stereo partly shown) [Compound 205]
18 | 99% | < 0.1 µM | > 1 µM | 99% | CN(C)c1cccc(-c2ccc3cnc(CNC(=O)c4ccc5c(c4)[C@](C)(C#N)COC5)cc3n2)n1 [Compound 360]
19 | 102% | < 0.1 µM | < 0.1 µM | 98% | COCCn1c(C)cc2c(-c3ccc4cnc(CNC(=O)c5ccc6c(c5)[C@](C)(C#N)COC6)cc4n3)cccc21 [Compound 133]
20 | 93% | 0.1 to 0.5 µM | 0.5 to 1 µM | 56% | C[C@@]1(C#N)COCc2ccc(C(=O)NCc3cc(N4CC(n5ccc6ccccc65)C4)ccn3)cc21 [Compound 59]
21 | 93% | 0.1 to 0.5 µM | 0.5 to 1 µM | 58% | C[C@@]1(C#N)COCc2ccc(C(=O)NCc3cc4nc(-c5ccncc5)ccc4cn3)cc21 [Compound 451]
22 | 100% | < 0.1 µM | 0.1 to 0.5 µM | 93% | C[C@@]1(C#N)COCc2ccc(C(=O)NCc3cc4nc(-c5ccnc(N6CC[C@H](F)C6)n5)ccc4cn3)cc21 [Compound 341]

Row | BRM Max % Inhibition [1] | IC50 [1] | IC50 [2] | Emax [2] | SMILES
23 | 101% | < 0.1 µM | < 0.1 µM | 99% | COCCNC(=O)c1cccc(C#Cc2ccnc(CNC(=O)c3ccc4c(c3)[C@](C)(C#N)COC4)c2)c1 [Compound 83]
24 | 100% | < 0.1 µM | 0.1 to 0.5 µM | 99% | C[C@@]1(C#N)COCc2ccc(C(=O)NCc3cc4nc(-c5cccc(N6CCCC6=O)n5)ccc4cn3)cc21 [Compound 378]
25 | 99% | < 0.1 µM | < 0.1 µM | 96% | C[C@@]1(C#N)COCc2ccc(C(=O)NCc3cc4nc(-c5cccc(N6CCC6=O)c5)ccc4cn3)cc21 [Compound 393]
26 | 83% | 0.1 to 0.5 µM | > 1 µM | 42% | CNC(=O)c1ccc(-c2ccc3cnc(CNC(=O)c4ccc5c(c4)[C@](C)(F)COC5)cc3n2)cn1 [Compound 260]
27 | 100% | < 0.1 µM | 0.1 to 0.5 µM | 95% | CO[C@H]1CCN(c2nccc(-c3ccc4cnc(CNC(=O)c5ccc6c(c5)[C@](C)(C#N)COC6)cc4n3)n2)C1 [Compound 339]
28 | 99% | < 0.1 µM | 0.1 to 0.5 µM | 96% | CCn1ccc2c(-c3ccc4cnc(CNC(=O)c5ccc6c(c5)[C@](C)(C#N)COC6)cc4n3)cccc21 [Compound 178]
29 | 98% | 0.1 to 0.5 µM | 0.1 to 0.5 µM | 83% | CN1C(=O)Cc2cc(-c3ccc4cnc(CNC(=O)c5ccc6c(c5)[C@](C)(C#N)COC6)cc4n3)ccc21 [Compound 498]
30 | 89% | > 1 µM | > 1 µM | 40% | C[C@@]1(C#N)CCOc2ccc(C(=O)NCc3cc4nc(-c5ccccc5)sc4cn3)cc21 [Compound 118]
31 | 101% | < 0.1 µM | 0.1 to 0.5 µM | 90% | C[C@@]1(F)COCc2ccc(C(=O)NCc3cc4nc(-c5cncc(C6CC6)n5)ccc4cn3)cc21 [Compound 325]
32 | 94% | 0.1 to 0.5 µM | 0.5 to 1 µM | 76% | C[C@@]1(C#N)COCc2ncc(C(=O)NCc3cc4nc(-c5cccc(C6CC6)c5)ccc4nn3)cc21 [Compound 198]
33 | 96% | 0.1 to 0.5 µM | > 1 µM | 62% | C[C@@]1(F)COCc2ccc(C(=O)NCc3cc4nc(-c5ccccc5)ccc4cn3)cc21 [Compound 86]
34 | 102% | < 0.1 µM | < 0.1 µM | 99% | C[C@@]1(C#N)COCc2ccc(C(=O)NCc3cc4cc(-c5cccc(C6(O)CC6)n5)ccc4cn3)cc21 [Compound 262]
35 | 100% | < 0.1 µM | < 0.1 µM | 97% | C[C@@]1(C#N)COCc2ccc(C(=O)NCc3cc4nc(-c5cncc(N6CCC6)n5)ccc4cn3)cc21 [Compound 497]
36 | 95% | 0.1 to 0.5 µM | > 1 µM | 51% | C[C@@]1(C#N)COCc2ccc(C(=O)NCc3cc4nc(-c5cccc(N6CCC6)c5)ccc4cn3)cc21 [Compound 126]
37 | 101% | < 0.1 µM | 0.5 to 1 µM | 78% | COc1nn(C)cc1-c1ccc2cnc(CNC(=O)c3ccc4c(c3)[C@](C)(F)COC4)cc2n1 [Compound 343]
38 | 97% | < 0.1 µM | 0.1 to 0.5 µM | 98% | Cn1ccc2ccc(-c3ccc4cnc(CNC(=O)c5ccc6c(c5)[C@](C)(C#N)COC6)cc4n3)cc2c1=O [Compound 452]
39 | 97% | < 0.1 µM | 0.1 to 0.5 µM | 84% | C[C@@]1(C#N)COCc2ccc(C(=O)NCc3cc4nc(-c5ccnc(N6C[C@H]7C[C@@H]6CO7)n5)ccc4cn3)cc21 [Compound 310]
40 | 96% | 0.1 to 0.5 µM | > 1 µM | 63% | C[C@@]1(C#N)COCc2ccc(C(=O)NCc3cc4nc(N5CCCC5=O)ccc4cn3)cc21 [Compound 471]
41 | 96% | 0.1 to 0.5 µM | 0.5 to 1 µM | 74% | C[C@@]1(C#N)COCc2ccc(C(=O)NCc3cc([C@H]4C[C@H](c5cccc(N6CCOCC6)n5)C4)ccn3)cc21 [Compound 79]
42 | 94% | 0.1 to 0.5 µM | 0.5 to 1 µM | 53% | C[C@@]1(F)COCc2ncc(C(=O)NCc3cc4nc(-c5ccccc5)sc4cn3)cc21 [Compound 290]
43 | 85% | 0.5 to 1 µM | > 1 µM | 55% | COC[C@H](NC(=O)c1ccc2c(c1)[C@](C)(C#N)COC2)c1cc(/C=C/c2ccccc2)ccn1 [Compound 41]
